Each structure is given as a SMILES string.

These results are taken from patent publication US20090264415A2 (priority 2004, published 2009).

The subject of the first test is peripheral blood mononuclear cells (PBMC) stimulated with allogeneic PBMC or EBV-transformed human B cells (RPMI1788). The experiment in a line: Mixed lymphocyte reaction (MLR) assay. In kind it is cell-based. To be noted: 50% suppression of the MLR, [3H]-thymidine incorporation; read-out: MLR. Here is the method: Pyrido[3,2-d]pyrimidine derivatives were first dissolved (10 mM) in dimethyl-sulfoxide (hereinafter referred as DMSO) and further diluted in culture medium before use for the following in vitro experiments. […] Some pyrido[3,2-d]pyrimidine derivatives described herein were tested in the following mixed lymphocyte reaction (MLR) assay.
Peripheral blood mononuclear cells (hereinafter referred as PBMC) were isolated from heparinized peripheral blood by density gradient centrifugation over Lymphoprep (Nycomed, Maorstua, Norway). Allogeneic PBMC or Eppstein-Barr Virus-transformed human B cells [commercially available under the trade name RPM11788 (ATCC name CCL156)] which strongly express B7-1 and B7-2 antigens were used as stimulator cells after irradiation with 30 Gy. MLR was performed in triplicate wells. After 5 days incubation at 37° C., 1 μCi [^3H]-thymidine was added to each cup. After a further 16 hours incubation, cells were harvested and counted in a β-counter. Inhibition of proliferation by a compound described in some of the present examples was counted while using the formula: [formula] wherein cpm is the thymidine count per minute. The MLR assay is regarded by those skilled in the art as an in vitro analogue of the transplant rejection since it is based on the recognition of allogeneic major histocompatibility antigens on the stimulator leukocytes, by responding lymphocytes.
(Incorporation of labelled thymidine or its analogues reports DNA synthesis.)
On to `COc1ccc(-c2ccc3nc(Nc4ccc(F)c(Cl)c4)nc(N4CCN(C(=O)Nc5cccc(C)c5)CC4)c3n2)cc1OC` [Example 92], for which the IC50 was determined as 1200 nM. For `CCCCOc1nc(N2CCN(C(=O)Nc3cccc(C)c3)CC2)c2nc(-c3ccc(OC)c(OC)c3)ccc2n1` [Example 89, 2-butoxy-4-[(N-3-methyl-phenylcarbamoyl)-piperazin-1-yl]-6-(3,4-dimethoxyphenyl)-pyrido[3,2-d]pyrimidine], the IC50 amounted to 2000 nM.

With `O=C(Nc1cccc(Cl)c1)N1CCN(c2ncnc3ccc(Cl)nc23)CC1` [Example 70, 4-[(N-3-chlorophenylcarbamoyl)-piperazin-1-yl]-6-chloro-pyrido[3,2-d]pyrimidine], the IC50 worked out at 3400 nM.

The test is the same for the next values; noted with them: Homo sapiens, RPMI-1788; 50% suppression of the MLR, [3H]-thymidine incorporation; read-out: MLR.
Consider `Nc1nc(N2CCN(C(=O)NCc3ccc(Cl)cc3)CC2)c2nc(-c3ccc(F)cc3)ccc2n1` [Example 189, 2-amino-4-[(N-4-chloro-benzylcarbamoyl)-piperazin-1-yl]-6-(4-fluorophenyl)-pyrido[3,2-d]pyrimidine], for which the IC50 stood at 500 nM.

On to `COc1cccc(-c2ccc3nc(N)nc(N4CCOCC4)c3n2)n1` [Example 236, 2-amino-4-morpholino-6-(6-methoxy-2-pyridinyl)-pyrido[3,2-d]pyrimidine], for which the IC50 came to 5300 nM. Still for that read-out and setting: as for `COc1ccc(-c2ccc3nc(N)nc(N4CC[C@H](NC(=O)Nc5cccc(C)c5)C4)c3n2)cc1OC` [Example 221], the figure is 1300 nM. On the same count and under the same terms, as for `Nc1nc(N2CCN(c3ccc(F)cc3)CC2)c2nc(-c3ccc(F)cc3)ccc2n1` [Example 204, 2-amino-4-[N-(4-fluoro-phenyl)-piperazin-1-yl]-6-(4-fluorophenyl)-pyrido[3,2-d]pyrimidine], the figure is 6400 nM; as for `COc1ccc(-c2ccc3nc(N)nc(N4CC[C@@H](NC(=O)Nc5cccc(C)c5)C4)c3n2)cc1OC` [Example 260], 2100 nM.

The test is the same for the next values; noted with them: Homo sapiens, RPMI-1788; MLR assay of example 319; read-out: MLR IC50.
In the case of `Nc1cccc(-c2ccc3nc(N)nc(N4CCN(C(=O)COc5ccc(Cl)cc5)CC4)c3n2)c1` [Example 419, 2-amino-4-[4-(4-chlorophenoxyacetyl)piperazin-1-yl]-6-(3-aminophenyl)pyrido-[3,2-d]pyrimidine], the IC50 is 20 nM.

Take `C=CC(=O)N1CCN(c2nc(N)nc3ccc(-c4ccc(OC)c(OC)c4)nc23)CC1` [Example 393, 2-amino-4-[4-(2-propenoyl)piperazin-1-yl]-6-(3,4-dimethoxyphenyl)-pyrido[3,2-d]pyrimidine]: the IC50 turned out to be 400 nM. The same measure, in the same setting: as for `Cc1cccc(-c2ccc3nc(N)nc(N4CCN(C(=O)COc5ccc(Cl)cc5)CC4)c3n2)c1` [Example 498, 2-amino-4-[N-(4-chlorophenoxyacetyl)-piperazin-1-yl]-6-(3-methyl-phenyl)-pyrido(3,2-d)pyrimidine], the figure is 8 nM; as for `NCC(=O)N1CCN(c2nc(N)nc3ccc(-c4ccc(F)cc4)nc23)CC1` [Example 444, 2-amino-4-[4-(aminoacetyl)-piperazin-1-yl]-6-(4-fluorophenyl)-pyrido[3,2-d]pyrimidine], 2300 nM; as for `COc1ccc(-c2ccc3nc(N)nc(N4CCN(C(=O)CNC(=O)OC(C)(C)C)CC4)c3n2)cc1OC` [Example 396, 2-amino-4-{4-[N-(tert-butoxycarbonyl)-glycyl]-piperazin-1-yl}-6-(3,4-di-methoxyphenyl)-pyrido[3,2-d]pyrimidine], 50 nM. Consider `Nc1nc(N2CCN(C(=O)COc3ccc(Cl)cc3)CC2)c2nc(-c3ccccc3)ccc2n1` [Example 421, 2-amino-4-[4-(4-chlorophenoxyacetyl)piperazin-1-yl]-6-phenylpyrido-[3,2-d]pyrimidine], for which the IC50 turned out to be 49 nM.

Regarding `Cc1cccc(NC(=O)N2CCN(c3ncnc4ccc(-c5ccco5)nc34)CC2)c1` [Example 563, 4-[(3-methylphenylcarbamoyl)-piperazin-1-yl]-6-(2-furanyl)pyrido[3,2-d]pyrimidine], the IC50 came out at 36 nM. In the case of `Nc1nc(N2CCN(C(=O)COc3ccc(Cl)cc3)CC2)c2nc(-c3ccc(C(=O)NC4CC4)cc3)ccc2n1` [Example 448, 2-amino-4-[4-(4-chlorophenoxyacetyl)piperazin-1-yl]-6-[4-(cyclopropylaminocarbonyl)phenyl]-pyrido-[3,2-d]pyrimidine], the IC50 was found to be 15 nM. Still for that read-out and setting: for `CC(C)(C)OC(=O)N1C[C@@H]2C[C@H]1CN2c1nc(N)nc2ccc(-c3ccc(F)cc3)nc12` [Example 483, (S,S)-5-[2-amino-6-(4-fluorophenyl)-pyrido[3,2-d]pyrimidin-4-yl]-2,5-diaza-bicyclo[2.2.1]heptane-2-carboxylic acid tert-butyl ester] the value was 6100 nM; for `Cc1cccc(C)c1-c1ccc2nc(N)nc(N3CCN(C(=O)COc4ccc(Cl)cc4)CC3)c2n1` [Example 433, 2-amino-4-[4-(4-chlorophenoxyacetyl)piperazin-1-yl]-6-(2,6-dimethylphenyl)-pyrido-[3,2-d]pyrimidine], 3600 nM. On the same count and under the same terms, as for `COc1ccc(OC)c(-c2ccc3nc(N)nc(N4CCN(C(=O)COc5ccc(Cl)cc5)CC4)c3n2)c1` [Example 506, 2-amino-4-[N-(4-chlorophenoxyacetyl)-piperazin-1-yl]-6-(2,5-dimethoxyphenyl)-pyrido(3,2-d)pyrimidine], the figure is 690 nM; as for `Nc1nc(N2CCN(C(=O)CO)CC2)c2nc(-c3ccc(F)cc3)ccc2n1` [Example 437, 2-amino-4-[4-(2-hydroxyacetyl)piperazin-1-yl]-6-(4-fluorophenyl)-pyrido[3,2-d]pyrimidine], 1600 nM. Turning to `N#Cc1ccccc1-c1ccc2nc(N)nc(N3CCN(C(=O)COc4ccc(Cl)cc4)CC3)c2n1` [Example 416, 2-amino-4-[4-(4-chlorophenoxyacetyl)piperazin-1-yl]-6-(2-cyanophenyl)pyrido-[3,2-d]pyrimidine], the IC50 came to 12 nM. Turning to `Cc1cccc(NC(=O)N2CCN(c3nc(CNC4CC4)nc4ccc(-c5ccc(F)cc5)nc34)CC2)c1` [Example 539, 2-(N-cyclopropylamino)methyl-4-[N-(3-methylphenylcarbamoyl)piperazin-1-yl]-6-(4-fluorophenyl)-pyrido[3,2-d]pyrimidine], the IC50 is 700 nM. Still for that read-out and setting: for `Nc1nc(N2CCN(CC(=O)OCc3ccc(Cl)cc3)CC2)c2nc(-c3ccc(F)cc3)ccc2n1` [Example 475, {4-[2-amino-6-(4-fluorophenyl)-pyrido[3,2-d]pyrimidin-4-yl]-piperazin-1-yl}-acetic acid 4-chloro-benzyl ester] the value was 4200 nM; for `Nc1nc(N2CCN(C(=O)COc3ccc(Cl)cc3Cl)CC2)c2nc(-c3ccc(F)cc3)ccc2n1` [Example 386, 2-amino-4-[4-(2,4-dichlorophenoxyacetyl)piperazin-1-yl]-6-(4-fluorophenyl)-pyrido[3,2-d]pyrimidine], 400 nM. For `CC(C)(C)OC(=O)NCC(=O)N1CCN(c2nc(N)nc3ccc(-c4ccc(F)cc4)nc23)CC1` [Example 434, 2-amino-4-{4-[N-(tert-butoxycarbonyl)-glycyl]-piperazin-1-yl}-6-(4-fluorophenyl)-pyrido[3,2-d]pyrimidine], the IC50 amounted to 93 nM. The same measure, in the same setting: for `C[C@H]1CN(C(=O)OCc2ccccc2)CCN1c1nc(N)nc2ccc(-c3ccc(F)cc3)nc12` [Example 486, (S)-4-[2-amino-6-(4-fluorophenyl)-pyrido[3,2-d]pyrimidin-4-yl]-3-methylpiperazine-1-carboxylic acid benzyl ester] the value was 800 nM.
